The target of data set [1] is Carbonic anhydrase 6 (Homo sapiens) (UniProt P23280). In words: Activation of human recombinant carbonic anhydrase 6 by stopped flow CO2 hydration method.
The target in data set [2] is Carbonic anhydrase 5B, mitochondrial (Homo sapiens) (UniProt Q9Y2D0). In words: Activation of human recombinant carbonic anhydrase 5B by stopped flow CO2 hydration method.
For data set [3], the target named is Carbonic anhydrase 7 (Homo sapiens) (UniProt P43166). The data set is described as follows: Activation of human recombinant carbonic anhydrase 7 by stopped flow CO2 hydration method.
Data set [4] addresses Carbonic anhydrase 9 (Homo sapiens) (UniProt Q16790). The data set is described as follows: Activation of human recombinant carbonic anhydrase 9 catalytic domain by stopped flow CO2 hydration method.
Data set [5] relates to Rattus norvegicus. In words: Activation of carbonic anhydrase in Sprague-Dawley rat red blood cells at 1 mg/kg, po after 3 hrs by colorimetry relative to control. It is filed as functional.
In data set [6] the target is Carbonic anhydrase 3 (Homo sapiens) (UniProt P07451). The data set is described as follows: Activation of human recombinant carbonic anhydrase 3 by stopped flow CO2 hydration method.
Data set [7] addresses Carbonic anhydrase 2 (Homo sapiens) (UniProt P00918). In words: Activation of human recombinant carbonic anhydrase 2 by stopped flow CO2 hydration method.
For data set [8], the system named is Rattus norvegicus. In words: Activation of carbonic anhydrase in Sprague-Dawley rat red blood cells at 1 mg/kg, po after 1 hr by colorimetry relative to control. Type of data set: functional.
The target in data set [9] is Carbonic anhydrase 1 (Homo sapiens) (UniProt P00915). In words: Activation of human recombinant carbonic anhydrase 1 by stopped flow CO2 hydration method.
Data set [10] concerns the target Carbonic anhydrase 4 (Homo sapiens) (UniProt P22748). In words: Activation of human recombinant carbonic anhydrase 4 by stopped flow CO2 hydration method.
In data set [11] the target is Carbonic anhydrase 12 (Homo sapiens) (UniProt O43570). In words: Activation of human recombinant carbonic anhydrase 12 catalytic domain by stopped flow CO2 hydration method.
The target of data set [12] is Carbonic anhydrase 13 (Mus musculus) (UniProt Q9D6N1). In words: Activation of mouse recombinant carbonic anhydrase 13 by stopped flow CO2 hydration method.
The test system of data set [13] is Rattus norvegicus. In words: Activation of carbonic anhydrase in Sprague-Dawley rat red blood cells at 1 mg/kg, po after 5 hrs by colorimetry relative to control. Type of data set: functional.
Data set [14] concerns the target Carbonic anhydrase 14 (Homo sapiens) (UniProt Q9ULX7). In words: Activation of human recombinant carbonic anhydrase 14 by stopped flow CO2 hydration method.
A short description of data set [15]: Half life in po dosed human plasma. Type of data set: ADME, organism-based.
In data set [16] the target is Carbonic anhydrase 5A, mitochondrial (Homo sapiens) (UniProt P35218). In words: Activation of human recombinant carbonic anhydrase 5A by stopped flow CO2 hydration method.
Chain of Carbonic anhydrase 5A, mitochondrial (Homo sapiens) (P35218 whole entry): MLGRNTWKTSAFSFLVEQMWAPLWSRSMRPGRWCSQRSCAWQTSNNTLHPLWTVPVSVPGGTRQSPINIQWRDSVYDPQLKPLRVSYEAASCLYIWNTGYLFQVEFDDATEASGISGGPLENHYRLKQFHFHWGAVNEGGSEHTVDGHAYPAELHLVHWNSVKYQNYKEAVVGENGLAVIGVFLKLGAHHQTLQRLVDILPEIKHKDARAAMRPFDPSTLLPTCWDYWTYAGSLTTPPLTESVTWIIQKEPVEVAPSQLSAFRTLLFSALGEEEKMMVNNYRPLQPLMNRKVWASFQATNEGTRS

Chain of Carbonic anhydrase 6 (Homo sapiens) (P23280 whole entry): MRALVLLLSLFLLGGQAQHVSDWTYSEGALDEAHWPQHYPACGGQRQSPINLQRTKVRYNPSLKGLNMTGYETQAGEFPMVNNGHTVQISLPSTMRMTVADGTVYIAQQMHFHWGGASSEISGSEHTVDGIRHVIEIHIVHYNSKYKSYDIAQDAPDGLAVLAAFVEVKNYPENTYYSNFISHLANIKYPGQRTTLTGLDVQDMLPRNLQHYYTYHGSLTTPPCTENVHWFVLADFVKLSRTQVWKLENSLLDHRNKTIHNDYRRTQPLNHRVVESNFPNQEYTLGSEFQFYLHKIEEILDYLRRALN
Chain of Carbonic anhydrase 1 (Homo sapiens) (P00915 2-261 limits assumed): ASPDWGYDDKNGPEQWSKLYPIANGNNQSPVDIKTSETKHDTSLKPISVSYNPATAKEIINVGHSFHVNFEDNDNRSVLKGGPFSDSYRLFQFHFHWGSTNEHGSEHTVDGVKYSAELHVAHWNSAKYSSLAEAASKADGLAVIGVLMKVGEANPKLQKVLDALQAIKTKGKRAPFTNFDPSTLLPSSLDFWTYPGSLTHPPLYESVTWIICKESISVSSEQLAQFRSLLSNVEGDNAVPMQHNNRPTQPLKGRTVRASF
Chain of Carbonic anhydrase 7 (Homo sapiens) (P43166 whole entry, the tested form may be a part): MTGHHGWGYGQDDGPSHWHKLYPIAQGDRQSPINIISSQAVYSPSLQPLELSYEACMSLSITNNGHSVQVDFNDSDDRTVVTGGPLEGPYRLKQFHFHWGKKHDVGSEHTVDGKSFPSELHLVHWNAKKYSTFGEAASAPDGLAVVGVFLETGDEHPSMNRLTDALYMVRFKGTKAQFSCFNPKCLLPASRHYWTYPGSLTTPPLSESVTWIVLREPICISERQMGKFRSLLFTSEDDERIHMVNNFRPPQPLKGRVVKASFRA
Chain of Carbonic anhydrase 3 (Homo sapiens) (P07451 whole entry): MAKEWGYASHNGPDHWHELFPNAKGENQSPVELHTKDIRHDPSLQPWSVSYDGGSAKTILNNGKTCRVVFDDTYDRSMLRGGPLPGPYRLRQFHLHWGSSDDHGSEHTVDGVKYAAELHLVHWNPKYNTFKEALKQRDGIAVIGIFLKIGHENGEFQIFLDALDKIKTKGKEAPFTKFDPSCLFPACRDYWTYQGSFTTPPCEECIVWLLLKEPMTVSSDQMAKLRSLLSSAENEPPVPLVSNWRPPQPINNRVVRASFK
Chain of Carbonic anhydrase 5B, mitochondrial (Homo sapiens) (Q9Y2D0 whole entry): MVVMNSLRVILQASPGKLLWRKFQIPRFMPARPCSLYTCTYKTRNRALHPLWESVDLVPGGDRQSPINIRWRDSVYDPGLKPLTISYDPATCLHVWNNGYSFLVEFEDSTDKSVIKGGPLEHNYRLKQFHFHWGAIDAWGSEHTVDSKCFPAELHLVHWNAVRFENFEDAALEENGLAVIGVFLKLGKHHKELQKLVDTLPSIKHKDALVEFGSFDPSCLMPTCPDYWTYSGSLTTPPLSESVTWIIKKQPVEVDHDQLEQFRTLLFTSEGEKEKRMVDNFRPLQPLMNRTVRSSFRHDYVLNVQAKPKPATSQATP
Chain of Carbonic anhydrase 4 (Homo sapiens) (P22748 whole entry, the tested form may be a part): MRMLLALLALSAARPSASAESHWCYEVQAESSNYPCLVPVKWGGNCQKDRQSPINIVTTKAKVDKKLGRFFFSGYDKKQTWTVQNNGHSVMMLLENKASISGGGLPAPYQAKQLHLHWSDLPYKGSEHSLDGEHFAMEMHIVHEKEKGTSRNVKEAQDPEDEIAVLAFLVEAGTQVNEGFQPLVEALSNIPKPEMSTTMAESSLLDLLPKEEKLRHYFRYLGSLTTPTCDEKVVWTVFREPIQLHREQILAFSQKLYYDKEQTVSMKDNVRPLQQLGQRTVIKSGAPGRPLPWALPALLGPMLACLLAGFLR
Chain of Carbonic anhydrase 12 (Homo sapiens) (O43570 whole entry, the tested form may be a part): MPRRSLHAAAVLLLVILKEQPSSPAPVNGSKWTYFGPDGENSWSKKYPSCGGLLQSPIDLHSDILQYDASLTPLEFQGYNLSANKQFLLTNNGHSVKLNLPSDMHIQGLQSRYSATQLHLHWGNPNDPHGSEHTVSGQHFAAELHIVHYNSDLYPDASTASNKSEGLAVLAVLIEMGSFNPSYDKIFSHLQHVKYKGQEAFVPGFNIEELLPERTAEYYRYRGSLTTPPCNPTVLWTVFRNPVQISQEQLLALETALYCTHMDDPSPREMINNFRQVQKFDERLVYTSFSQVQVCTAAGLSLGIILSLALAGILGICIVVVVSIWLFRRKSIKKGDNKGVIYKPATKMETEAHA
Chain of Carbonic anhydrase 14 (Homo sapiens) (Q9ULX7 whole entry): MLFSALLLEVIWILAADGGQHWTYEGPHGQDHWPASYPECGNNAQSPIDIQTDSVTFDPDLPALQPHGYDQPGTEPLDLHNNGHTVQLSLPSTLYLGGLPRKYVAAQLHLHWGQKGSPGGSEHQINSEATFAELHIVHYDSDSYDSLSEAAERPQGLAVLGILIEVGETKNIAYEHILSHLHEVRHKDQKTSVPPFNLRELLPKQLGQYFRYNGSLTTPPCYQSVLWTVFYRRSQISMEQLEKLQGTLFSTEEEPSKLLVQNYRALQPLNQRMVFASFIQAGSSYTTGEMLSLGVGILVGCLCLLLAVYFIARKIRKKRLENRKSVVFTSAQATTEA
Chain of Carbonic anhydrase 13 (Mus musculus) (Q9D6N1 whole entry, looked up): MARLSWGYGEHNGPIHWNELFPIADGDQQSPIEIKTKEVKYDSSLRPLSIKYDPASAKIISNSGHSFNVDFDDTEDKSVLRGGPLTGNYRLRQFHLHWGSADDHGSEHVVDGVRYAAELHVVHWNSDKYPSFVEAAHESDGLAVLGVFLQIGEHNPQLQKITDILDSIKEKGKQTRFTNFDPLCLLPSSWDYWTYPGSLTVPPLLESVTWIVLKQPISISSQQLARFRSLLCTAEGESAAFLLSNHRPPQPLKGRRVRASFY

Consider `NCCN1CCNCC1`, for which, in data set [1], the KA is 9.54 µM.
As to `NCCc1c[nH]cn1`, the KA in data set [1] was 6.5 µM.
As a reminder, the half-life is the time in which the quantity being followed falls by half. The low end stands for rapid decline, the high end for slow decline. Consider `CCCc1nn(C)c2c(=O)[nH]c(-c3cc(S(=O)(=O)N4CCN(C)CC4)ccc3OCC)nc12.O=C(O)CC(O)(CC(=O)O)C(=O)O` [SILDENAFIL CITRATE], for which the KA amounted to 6.54 µM in [2]; 72.9 µM in [3]; 34 µM in [4]; 13.4 µM in data set [6]; 2.37 µM in [1]; 31.3 µM in data set [7]. Besides, the KA is 1.08 µM in [9]; 15.2 µM in [10]; 73 µM in data set [11]; 27.5 µM in data set [12]; 32.4 µM in [14]; 16.8 µM in data set [16]. For the same molecule, the figures for the Activity in the data set on Rattus norvegicus [5], in the data set with Rattus norvegicus [8] and in the data set with Rattus norvegicus [13] were 59.6%, 84.47% and 79.19%, respectively. The half-life in data set [15] was 4 h.

The values are drawn from ChEMBL document CHEMBL1153513, “Sildenafil is a strong activator of mammalian carbonic anhydrase isoforms I-XIV” (Bioorg Med Chem, 2009).
